Measured values taken from PubChem BioAssay AID328 (DTP/NCI, 2004).
Values joined by “and” are separate entries in the source; they are usually repeats but may differ in a detail not shown here. Equal entries are not always repeated. Toxic doses and inconclusive results are not listed.

Test system: BDF1 mice, P388 leukemia ip, median survival T/C
Experiment: NCI In Vivo Anticancer Drug Screen. Data for tumor model P388 Leukemia (intraperitoneal) in B6D2F1 (BDF1) mice
Details: endpoint: median survival time, higher = longer survival
Procedure, shortened: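 Survival ratio, drug arm over vehicle arm, in mice with a transplanted tumour.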

[1] = dose: 200.0 mg/kg/injection, schedule: Q04DX003 (ip), vehicle: saline sonified
[2] = dose: 400.0 mg/kg/injection, schedule: Q04DX003 (ip), vehicle: saline sonified
[3] = dose: 50.0 mg/kg/injection, schedule: Q01DX009 (ip), vehicle: saline with Tween-80
[4] = dose: 100.0 mg/kg/injection, schedule: Q01DX009 (ip), vehicle: saline with Tween-80
[5] = dose: 200.0 mg/kg/injection, schedule: Q01DX009 (ip), vehicle: saline with Tween-80
[6] = dose: 100.0 mg/kg/injection, schedule: Q01DX009 (ip), vehicle: saline
[7] = dose: 100.0 mg/kg/injection, schedule: Q04DX003 (ip), vehicle: saline with Tween-80
[8] = dose: 200.0 mg/kg/injection, schedule: Q04DX003 (ip), vehicle: saline with Tween-80
[9] = dose: 100.0 mg/kg/injection, schedule: Q01DX009 (ip), vehicle: Klucel (hydroxypropylcellulose) (HPC)
[10] = dose: 100.0 mg/kg/injection, schedule: Q04DX003 (ip), vehicle: Klucel (hydroxypropylcellulose) (HPC)
[11] = dose: 400.0 mg/kg/injection, schedule: Q04DX003 (ip), vehicle: Klucel (hydroxypropylcellulose) (HPC)
[12] = dose: 100.0 mg/kg/injection, schedule: Q04DX003 (ip), vehicle: saline
[13] = dose: 150.0 mg/kg/injection, schedule: Q04DX003 (ip), vehicle: Klucel (hydroxypropylcellulose) (HPC)

C[N+](C)(CC(=O)Nc1ccc(Cl)c(C(F)(F)F)c1)CC(=O)c1ccc(Cl)c(Cl)c1
T/C [1]: 100 % of control
T/C [2]: 104 % of control

CN(C)c1ccc(/C=C\c2ccnc3c([N+](=O)[O-])cccc23)cc1
T/C [3]: 115 % of control
T/C [4]: 97 % of control
T/C [5]: 92 % of control

CCOC(=O)CC1=NN=C(N)SC1
T/C [6]: 122 % of control

Cc1cc(N(CCCl)CCCl)ccc1C=Nc1cccc(Cl)c1
T/C [3]: 103 % of control
T/C [4]: 119 % of control
T/C [7]: 118 % of control
T/C [5]: 96 % of control
T/C [8]: 118 % of control

CCCOc1ccc(-c2nc(-c3ccc(N=Cc4ccc(N(CCOS(C)(=O)=O)CCOS(C)(=O)=O)cc4C)cc3)cs2)cc1
T/C (dose: 25.0 mg/kg/injection, schedule: Q04DX003 (ip), vehicle: saline with Tween-80): 156 % of control
T/C (dose: 50.0 mg/kg/injection, schedule: Q04DX003 (ip), vehicle: saline with Tween-80): 175 % of control
T/C [7]: 166 % of control

COC(=O)CCN(c1ccccc1)S(=O)(=O)c1ccc(C)cc1
T/C [9]: 104 % of control
T/C [10]: 100 % of control
T/C (dose: 200.0 mg/kg/injection, schedule: Q01DX009 (ip), vehicle: Klucel (hydroxypropylcellulose) (HPC)): 104 % of control
T/C (dose: 200.0 mg/kg/injection, schedule: Q04DX003 (ip), vehicle: Klucel (hydroxypropylcellulose) (HPC)): 100 % of control
T/C (dose: 400.0 mg/kg/injection, schedule: Q01DX009 (ip), vehicle: Klucel (hydroxypropylcellulose) (HPC)): 95 % of control
T/C [11]: 100 % of control

O=C(NC(=O)c1c(F)cccc1F)Nc1ccc2[nH]ccc2c1
T/C (dose: 25.0 mg/kg/injection, schedule: Q01DX009 (ip), vehicle: saline with Tween-80): 100 % of control
T/C [3]: 100 % of control
T/C [4]: 93 % of control

O=C(Nc1ccccc1Cl)OCC#CCOC(=O)Nc1ccccc1Cl
T/C (dose: 100.0 mg/kg/injection, schedule: Q04DX003 (ip), vehicle: saline sonified): 90 % of control
T/C [1]: 95 % of control
T/C [2]: 86 % of control

CCCN(CCC)CCCOC(=O)c1ccc(N)cc1
T/C (dose: 25.0 mg/kg/injection, schedule: Q01DX009 (ip), vehicle: saline): 100 % of control
T/C (dose: 50.0 mg/kg/injection, schedule: Q01DX009 (ip), vehicle: saline): 96 % of control
T/C (dose: 50.0 mg/kg/injection, schedule: Q04DX003 (ip), vehicle: saline): 100 % of control
T/C [6]: 89 % of control
T/C [12]: 95 % of control

CC(C)(C)C1CCC(C#N)(N=Nc2ccccc2)CC1 (configuration not stated)
T/C (dose: 50.0 mg/kg/injection, schedule: Q01DX005 (ip), vehicle: saline with Tween-80): 102 % of control
T/C (dose: 100.0 mg/kg/injection, schedule: Q01DX005 (ip), vehicle: saline with Tween-80): 89 % of control

COc1ccccc1NC(=O)Nc1cccc(Cl)c1
T/C [7]: 95 % of control
T/C [8]: 104 % of control
T/C (dose: 400.0 mg/kg/injection, schedule: Q04DX003 (ip), vehicle: saline with Tween-80): 95 % of control

CNNC(=O)NC
T/C (dose: 2.06 mg/kg/injection, schedule: Q01DX009 (ip), vehicle: saline): 108 % of control
T/C (dose: 4.12 mg/kg/injection, schedule: Q01DX009 (ip), vehicle: saline): 116 % of control
T/C (dose: 8.25 mg/kg/injection, schedule: Q01DX009 (ip), vehicle: saline): 91 % of control
T/C (dose: 35.0 mg/kg/injection, schedule: Q04DX003 (ip), vehicle: saline): 109 % of control
T/C (dose: 55.0 mg/kg/injection, schedule: Q04DX003 (ip), vehicle: saline): 113 % of control
T/C (dose: 80.0 mg/kg/injection, schedule: Q04DX003 (ip), vehicle: saline): 118 % of control
T/C (dose: 120.0 mg/kg/injection, schedule: Q04DX003 (ip), vehicle: saline): 109 % of control
T/C (dose: 180.0 mg/kg/injection, schedule: Q04DX003 (ip), vehicle: saline): 113 % of control
T/C (dose: 270.0 mg/kg/injection, schedule: Q04DX003 (ip), vehicle: saline): 109 % of control

CCCCCCCC(=O)NCCCC
T/C (dose: 100.0 mg/kg/injection, schedule: Q01DX001 (ip), vehicle: Klucel (hydroxypropylcellulose) (HPC)): 104 % of control
T/C [10]: 91 % of control
T/C (dose: 200.0 mg/kg/injection, schedule: Q01DX001 (ip), vehicle: Klucel (hydroxypropylcellulose) (HPC)): 86 % of control
T/C (dose: 400.0 mg/kg/injection, schedule: Q01DX001 (ip), vehicle: Klucel (hydroxypropylcellulose) (HPC)): 104 % of control
T/C [11]: 100 % of control

C[C@H]1CCC/C=C/[C@@H]2C[C@H](O)C[C@H]2[C@H](O)/C=C/C(=O)O1
T/C (dose: 2.5 mg/kg/injection, schedule: Q01DX009 (ip), vehicle: Klucel (hydroxypropylcellulose) (HPC)): 110 % of control
T/C (dose: 4.0 mg/kg/injection, schedule: Q01DX010 (ip), vehicle: other): 90 % of control
T/C (dose: 5.0 mg/kg/injection, schedule: Q01DX009 (ip), vehicle: Klucel (hydroxypropylcellulose) (HPC)): 106 % of control
T/C (dose: 8.0 mg/kg/injection, schedule: Q01DX010 (ip), vehicle: other): 90 % of control
T/C (dose: 10.0 mg/kg/injection, schedule: Q01DX009 (ip), vehicle: Klucel (hydroxypropylcellulose) (HPC)): 94 % of control
T/C (dose: 25.0 mg/kg/injection, schedule: Q01DX009 (ip), vehicle: Klucel (hydroxypropylcellulose) (HPC)): 100 % of control
T/C (dose: 50.0 mg/kg/injection, schedule: Q01DX009 (ip), vehicle: Klucel (hydroxypropylcellulose) (HPC)): 100 % of control
T/C (dose: 50.0 mg/kg/injection, schedule: Q04DX003 (ip), vehicle: Klucel (hydroxypropylcellulose) (HPC)): 104 % of control
T/C [9]: 90 % of control
T/C [10]: 109 % of control

O=c1/c(=C\C=C\c2ccccc2)sc2n1CCN=2
T/C [3]: 92 % of control
T/C [4]: 92 % of control
T/C [5]: 92 % of control

O=[N+]([O-])c1ccc(N/N=C/CC(O)CO)c([N+](=O)[O-])c1 (configuration not stated)
T/C [6]: 100 % of control
T/C (dose: 200.0 mg/kg/injection, schedule: Q01DX009 (ip), vehicle: saline): 120 % of control

COc1ccc(C(O)CNC(=O)c2ccccc2)cc1 (configuration not stated)
T/C (dose: 66.0 mg/kg/injection, schedule: Q04DX003 (ip), vehicle: Klucel (hydroxypropylcellulose) (HPC)): 109 % of control and 110 % of control
T/C [10]: 255 % of control and 104 % of control and 115 % of control
T/C [13]: 109 % of control and 115 % of control

CC(C)CCCC(C)C1CCC2C3CC=C4CC(O)CCC4(C)C3CCC12C (configuration not stated) (tested in a mixture with another compound)
T/C (dose: 25.0 mg/kg/injection, schedule: Q04DX003 (ip), vehicle: alcohol): 90 % of control
T/C (dose: 50.0 mg/kg/injection, schedule: Q04DX003 (ip), vehicle: alcohol): 100 % of control
T/C (dose: 56.25 mg/kg/injection, schedule: Q01DX009 (ip), vehicle: Klucel (hydroxypropylcellulose) (HPC)): 95 % of control
T/C (dose: 100.0 mg/kg/injection, schedule: Q04DX003 (ip), vehicle: alcohol): 105 % of control
T/C (dose: 112.5 mg/kg/injection, schedule: Q01DX009 (ip), vehicle: Klucel (hydroxypropylcellulose) (HPC)): 100 % of control
T/C [13]: 100 % of control
T/C (dose: 225.0 mg/kg/injection, schedule: Q01DX009 (ip), vehicle: Klucel (hydroxypropylcellulose) (HPC)): 104 % of control
T/C (dose: 225.0 mg/kg/injection, schedule: Q04DX003 (ip), vehicle: Klucel (hydroxypropylcellulose) (HPC)): 104 % of control

Cc1ccccc1OS(=O)(=O)c1ccccc1[N+](=O)[O-]
T/C (dose: 100.0 mg/kg/injection, schedule: Q01DX001 (ip), vehicle: saline sonified): 100 % of control
T/C (dose: 200.0 mg/kg/injection, schedule: Q01DX001 (ip), vehicle: saline sonified): 110 % of control
T/C (dose: 400.0 mg/kg/injection, schedule: Q01DX001 (ip), vehicle: saline sonified): 105 % of control

NC(N)=NCCCCCC(=O)O
T/C [12]: 104 % of control
T/C (dose: 200.0 mg/kg/injection, schedule: Q04DX003 (ip), vehicle: saline): 109 % of control
T/C (dose: 400.0 mg/kg/injection, schedule: Q01DX001 (ip), vehicle: saline): 87 % of control
